Assay results from paper PMC10223470 (Molecules, 2023).
Where a name gives a salt, the structure may show the parent alone.

molecular target: T1, human D2S receptor (Homo sapiens, UniProt P14416); test: Competition radioligand binding at human D2 receptor ([3H]-Spiperone, CHO-K1 membranes); settings: D2 receptor affinity
T1 construct: expressed in transfected cells; host or cells: CHO-K1
Protocol: Experiments were carried out in membranes isolated from a CHO-K1 cell line stably overexpressing the cloned human D2S receptor.
Competition radioligand binding assays were performed on membranes isolated from cell lines stably expressing the cloned human receptors, which were either in-house or commercially available. […] Assays (250 μL assay final volume) were carried out in 96-well polypropylene plates in duplicate. In short, the suspension of appropriate membrane protein was incubated in an assay buffer with the addition of the corresponding radioligand, in the presence or absence of a tested compound or reference compound. […] After the incubation, the content of the test plates was transferred to 96 well plates with glass fiber filter GF/B or GF/C, previously pretreated with polyethyleneimine (PEI), and rapidly filtered with the use of vacuum, followed by rapid washing with cold (4 °C) wash buffer. After that, the filter plates were dried at 60 °C for 1 h. Then, 30 μL of liquid scintillation cocktail (UniverSol-ES, MP Biomedicals, Solon, OH, USA) was added to each well of the filter plates, and the radioactivity was measured in a MicroBeta^2 microplate scintillation counter (PerkinElmer, Madrid, Spain).
Competition binding curves were fitted to a one-site competition binding model (Fit Ki) with the use of Prism 7 software (GraphPad, San Diego, CA, USA). logKi (log of the equilibrium dissociation constant (Ki)) values were obtained after constraining the concentration of radioligand employed in the assay and its dissociation constant (KD) as determined in saturation radioligand binding assays.

T1 sequence (P14416 1-414 isoform P14416-2): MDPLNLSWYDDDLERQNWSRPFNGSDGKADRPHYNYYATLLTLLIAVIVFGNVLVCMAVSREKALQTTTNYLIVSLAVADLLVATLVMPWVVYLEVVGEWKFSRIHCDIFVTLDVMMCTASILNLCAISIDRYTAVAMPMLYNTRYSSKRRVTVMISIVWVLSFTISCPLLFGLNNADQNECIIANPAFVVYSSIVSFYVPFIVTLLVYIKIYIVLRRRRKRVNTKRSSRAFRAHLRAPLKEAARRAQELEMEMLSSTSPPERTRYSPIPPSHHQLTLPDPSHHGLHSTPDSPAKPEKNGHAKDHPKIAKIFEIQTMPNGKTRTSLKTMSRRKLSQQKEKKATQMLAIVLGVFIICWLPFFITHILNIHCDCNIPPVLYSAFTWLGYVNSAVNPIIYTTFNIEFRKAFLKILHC

Compound	decrease of activity compared to the initial compound (D2AAK2)
O=C(CCN1C(=O)CCOc2ccccc21)Nc1ccc(C(F)(F)F)cc1 [Compound 4, 3-(4-Oxo-3,4-dihydrobenzo[b][1,4]oxazepin-5(2H)-yl)-N-(4-(trifluoromethyl)phenyl)propanamide]	10 fold

same assay, conditions: mean ± SEM of 2–3 independent experiments in duplicate; read-out: huD2 Ki

Compound	Ki
O=C(CCN1C(=O)CCOc2ccccc21)Nc1ccc(C(F)(F)F)cc1 [Compound 4, 3-(4-Oxo-3,4-dihydrobenzo[b][1,4]oxazepin-5(2H)-yl)-N-(4-(trifluoromethyl)phenyl)propanamide]	3.846 ± 0.035 µM

same assay, conditions: read-out: huD2 % inh. at 10 µM

Compound	inhibition at 10 µM
O=C(CCN1C(=O)CSc2ccccc21)Nc1ccccc1Cl [Compound 15, N-(2-Chlorophenyl)-3-(3-oxo-2,3-dihydro-4H-benzo[b][1,4]thiazin-4-yl)propanamide]	9 ± 3%
Cc1ccccc1NC(=O)CCN1C(=O)CSc2ccccc21 [Compound 12, 3-(3-Oxo-2,3-dihydro-4H-benzo[b][1,4]thiazin-4-yl)-N-(o-tolyl)propanamide]	10%
Cc1ccc(S(=O)(=O)NCCC(=O)Nc2ccc(C(F)(F)F)cc2)cc1 [Compound 8, 3-((4-Methylphenyl)sulfonamido)-N-(4-(trifluoromethyl)phenyl)propanamide]	8 ± 7%
O=C(CCN1C(=O)CSc2ccccc21)Nc1cccc([N+](=O)[O-])c1 [Compound 22, N-(3-Nitrophenyl)-3-(3-oxo-2,3-dihydro-4H-benzo[b][1,4]thiazin-4-yl)propanamide]	27 ± 2%
COc1ccc(NC(=O)CCN2C(=O)CSc3ccccc32)cc1 [Compound 20, N-(4-Methoxyphenyl)-3-(3-oxo-2,3-dihydro-4H-benzo[b][1,4]thiazin-4-yl)propanamide]	47 ± 1%
COc1ccccc1NC(=O)CCN1C(=O)CSc2ccccc21 [Compound 18, N-(2-Methoxyphenyl)-3-(3-oxo-2,3-dihydro-4H-benzo[b][1,4]thiazin-4-yl)propanamide]	6%
Cc1cccc(NC(=O)CCN2C(=O)CSc3ccccc32)c1 [Compound 13, 3-(3-Oxo-2,3-dihydro-4H-benzo[b][1,4]thiazin-4-yl)-N-(m-tolyl)propanamide]	32 ± 4%
O=C(CCN1CCSCC1=O)Nc1ccc(C(F)(F)F)cc1 [Compound 5, 3-(3-Oxothiomorpholino)-N-(4-(trifluoromethyl)phenyl)propanamide]	14 ± 10%
COc1cccc(NC(=O)CCN2C(=O)CSc3ccccc32)c1 [Compound 19, N-(3-Methoxyphenyl)-3-(3-oxo-2,3-dihydro-4H-benzo[b][1,4]thiazin-4-yl)propanamide]	10 ± 4%
O=C(CN1C(=O)CSc2ccccc21)Nc1ccc(C(F)(F)F)cc1 [Compound 9, 2-(3-Oxo-2,3-dihydro-4H-benzo[b][1,4]thiazin-4-yl)-N-(4-(trifluoromethyl)phenyl)acetamide]	8 ± 8%
O=C(CCN1C(=O)CSc2ccccc21)Nc1ccccc1 [Compound 10, 3-(3-Oxo-2,3-dihydro-4H-benzo[b][1,4]thiazin-4-yl)-N-phenylpropanamide]	39 ± 4%
Cc1ccccc1S(=O)(=O)NCCC(=O)Nc1ccc(C(F)(F)F)cc1 [Compound 7, 3-((2-Methylphenyl)sulfonamido)-N-(4-(trifluoromethyl)phenyl)propanamide]	13 ± 13%
O=C(CCN1C(=O)CSc2ccccc21)Nc1cccc(Cl)c1 [Compound 16, N-(3-Chlorophenyl)-3-(3-oxo-2,3-dihydro-4H-benzo[b][1,4]thiazin-4-yl)propanamide]	42 ± 8%
O=C(CCn1c(=O)oc2ccccc21)Nc1ccc(C(F)(F)F)cc1 [Compound 3, 3-(2-Oxobenzo[d]oxazol-3(2H)-yl)-N-(4-(trifluoromethyl)phenyl)propanamide]	8 ± 8%
O=C(CCn1c(=O)sc2ccccc21)Nc1ccc(C(F)(F)F)cc1 [Compound 2, 3-(2-Oxobenzo[d]thiazol-3(2H)-yl)-N-(4-(trifluoromethyl)phenyl)propanamide]	11 ± 5%
O=C(CCN1CCCCC1=O)Nc1ccc(C(F)(F)F)cc1 [Compound 6, 3-(2-Oxopiperidin-1-yl)-N-(4-(trifluoromethyl)phenyl)propanamide]	14 ± 11%
O=C(CCN1C(=O)CSc2ccccc21)Nc1ccccc1C(F)(F)F [Compound 11, 3-(3-Oxo-2,3-dihydro-4H-benzo[b][1,4]thiazin-4-yl)-N-(2-(trifluoromethyl)phenyl)propanamide]	9 ± 1%
O=C(CCN1C(=O)CSc2ccccc21)Nc1ccccc1[N+](=O)[O-] [Compound 21, N-(2-Nitrophenyl)-3-(3-oxo-2,3-dihydro-4H-benzo[b][1,4]thiazin-4-yl)propanamide]	5 ± 3%
O=C(CCN1C(=O)COc2ccccc21)Nc1ccc(C(F)(F)F)cc1 [Compound 1, 3-(3-Oxo-2,3-dihydro-4H-benzo[b][1,4]oxazin-4-yl)-N-(4-(trifluoromethyl)phenyl)propanamide]	35 ± 14%

system: mice; test: Amphetamine-induced hyperactivity in mice; assay type: in vivo; settings: amphetamine 3 mg/kg s.c.
Protocol: (§1) The experiments were carried out on 6 weeks old naive Swiss male mice (Experimental Medicine Center (OMD), Lublin, Poland), weighing 28–30 g. The cages with mice were located in air-conditioned rooms maintaining the ambient temperature within the range of 23–25 °C. The animals were provided with a natural 12 h day/night cycle, replicating the day and night mode. Each testing group was represented by 8–10 animals, depending on the research schedule. All experiments were conducted according to the National Institute of Health Guidelines for the Care and Use of Laboratory Animals (8th edition) and to the European Community Council Directive for the Care and Use of Laboratory Animals of 22 September 2010 (2010/63/EU) and were approved by the Local Ethical Committee (number of ethical approval: 147/2018).
(§2) Compound 17 (25, 50, 75 mg/kg) was suspended in 1% Tween 80 in saline solution and was administered intraperitoneally (i.p.) 60 min before the test. Diazepam (DZ, Relanium, Polfa, Poland) at a dose of 1 mg/kg was diluted in 0.9% saline containing 1% Tween 80 and was administered subcutaneously (s.c.), 60 min before the test. Imipramine hydrochloride (30 mg/kg, Sigma-Aldrich was administered intraperitoneally (i.p.) 60 min before the test. D-amphetamine sulfate (3 mg/kg; Sigma-Aldrich, USA) was given subcutaneously (s.c.). Prior to administration, the agent was dissolved in saline and injected 30 min before the test. Control animals received an (i.p.) or (s.c.) injection of a respective vehicle. All compounds were injected in a manner generally accepted in experimental pharmacology, in an amount of 10 mL/kg body weight.
The measurement of the spontaneous locomotor activity was carried out using the OptoVarimex 4 Auto-Track device (Columbus Instruments, Columbus, OH, USA). Tested animals are kept in cages for 30 min. Their activity was recorded as interruptions of the light beams after 10 and 30 min of the test, and it was calculated automatically as a traveled distance in cm (±SEM). To determine whether compound 17 has an influence on amphetamine-induced hyperactivity, each mouse received 17 (25, 50 and 75 mg/kg; i.p.) and amphetamine (3 mg/kg; s.c.) 30 min after injection of 17 or vehicle and then spontaneous locomotor activity was measured.

Compound	effect on locomotor activity compared to the control group after 10 min	effect on locomotor activity compared to the control group after 30 min
C[C@H](N)Cc1ccccc1 [amphetamine, D-amphetamine sulfate, reference compound]	increased mice locomotor activity	increased mice locomotor activity

system: mice; test: Elevated plus-maze (EPM) test; assay type: in vivo; settings: 1 mg/kg s.c., 60 min before the test; p < 0.05 versus vehicle
Protocol: as §1, §2
The experiment was carried out on mice according to the method of Lister. […] The number of entries into the open arms and the time spent in these arms were scored for a 5-min test period. […] The following measures were obtained from the test: the total number of arm entries, the percentage of entries into the open arms, the time spent in the open arms expressed as a percentage of the time spent in both the open and closed arms. […]

Compound	time spent in the open arms of the maze
CN1C(=O)CN=C(c2ccccc2)c2cc(Cl)ccc21 [Diazepam, reference compound]	statistically significant increase

system: mice; test: Forced swim test (FST); assay type: in vivo; settings: imipramine 30 mg/kg i.p., 60 min before the test; p < 0.001
Protocol: The experiments were carried out on 6 weeks old naive Swiss male mice (Experimental Medicine Center (OMD), Lublin, Poland), weighing 28–30 g. The cages with mice were located in air-conditioned rooms maintaining the ambient temperature within the range of 23–25 °C. The animals were provided with a natural 12 h day/night cycle, replicating the day and night mode. Each testing group was represented by 8–10 animals, depending on the research schedule. All experiments were conducted according to the National Institute of Health Guidelines for the Care and Use of Laboratory Animals (8th edition) and to the European Community Council Directive for the Care and Use of Laboratory Animals of 22 September 2010 (2010/63/EU) and were approved by the Local Ethical Committee (number of ethical approval: 147/2018). Compound 17 (25, 50, 75 mg/kg) was suspended in 1% Tween 80 in saline solution and was administered intraperitoneally (i.p.) 60 min before the test. […] Imipramine hydrochloride (30 mg/kg, Sigma-Aldrich was administered intraperitoneally (i.p.) 60 min before the test. […] Sigma-Aldrich, USA) was given subcutaneously (s.c.). Prior to administration, the agent was dissolved in saline and injected 30 min before the test. Control animals received an (i.p.) or (s.c.) injection of a respective vehicle. All compounds were injected in a manner generally accepted in experimental pharmacology, in an amount of 10 mL/kg body weight. Forced Swim Test was carried out according to the method of Porsolt et al.. It is a standard behavioral test, called the resignation test, which is used to determine the effectiveness of antidepressant drugs in laboratory rodents. Each mouse was placed individually for 6 min into a glass cylinder (height 25 cm, diameter 10 cm) with 15 cm of water at 23–25 °C. After the first 2 min of the test, the total duration of immobility (in seconds) was measured. An animal was judged to be immobile when it ceased struggling and remained floating motionless and making only movements allowing it to keep the head just above the surface of the water.

Compound	effect on immobility time
CN(C)CCCN1c2ccccc2CCc2ccccc21 [imipramine, Imipramine hydrochloride, reference compound]	statistically significant decrease
